From publication PMC9062151, “GVS-12 attenuates non-alcoholic steatohepatitis by suppressing inflammatory responses via PPARγ/STAT3 signaling pathways” (RSC Advances, 2019)

Biological target: T1, PPARγ (peroxisome proliferator-activated receptor γ) (Homo sapiens, UniProt P37231)
T1 construct: gene PPARG; PPARγ-LBD
T1 sequence (P37231 235-505 limits assumed): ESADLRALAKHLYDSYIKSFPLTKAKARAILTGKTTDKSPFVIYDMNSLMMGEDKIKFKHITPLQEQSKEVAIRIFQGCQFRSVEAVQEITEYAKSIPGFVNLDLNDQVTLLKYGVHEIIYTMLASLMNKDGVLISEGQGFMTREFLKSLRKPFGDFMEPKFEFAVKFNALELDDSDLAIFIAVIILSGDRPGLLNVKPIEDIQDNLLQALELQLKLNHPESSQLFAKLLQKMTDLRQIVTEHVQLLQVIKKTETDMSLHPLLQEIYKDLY
Test: LanthaScreen TR-FRET PPARγ competitive binding assay; supported by PPARγ reporter gene activation in HepG2 cells

- Ki: 320 nM
Structure (SMILES): O=C(NCc1ccco1)c1ccc(OCc2ccc(C(F)(F)F)cc2)cc1 [GVS-12]
